The values that follow come from PubChem BioAssay (NCI).

Each structure is given as a SMILES string.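 These data come from cells grown in 96-well plates and exposed to compound for 48 hours at five concentrations. GI50 is the concentration that inhibits growth by half. At the TGI there is no net growth.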

Common to all, as to experiment: NCI-60 cell line screen, 48 h
The subject of experiment [1] is SF-539 CNS.
The subject of experiment [2] is KM12 colon.
In experiment [3] the test system is ACHN renal.
Experiment [4] concerns NCI-H23 lung.
Experiment [5] concerns SN12C renal.
Experiment [6] concerns DU-145 prostate.
Experiment [7] relates to SK-MEL-2 melanoma.
In experiment [8] the test system is UACC-62 melanoma.
Experiment [9] has as its system A549 NSCLC.
For experiment [10], the system named is SNB-75 CNS.

As to `Clc1ccc2[nH]cc(-c3nnnn3-c3ccccc3)c2c1`, the GI50 is 16.5 µM in experiment [1]; 2.99 µM in experiment [2]; 24.9 µM in experiment [3]; 8.11 µM in experiment [4]; 32.8 µM in [5]; 24.5 µM in [6]. Besides, the GI50 in experiment [7] was greater than 64.9 µM; in experiment [8], 11.2 µM; in experiment [9], 20.8 µM; in experiment [10] it was 6.25 µM. Also, the TGI was 39 µM in experiment [1]; 19 µM in experiment [2]; greater than 100 µM in experiment [3]; 49.9 µM in experiment [4]; greater than 100 µM in experiment [5]; greater than 76.6 µM in [6]. For the same compound, the TGI was greater than 100 µM in [7], greater than 100 µM in [8], greater than 100 µM in [9] and 30.8 µM in [10].
As for `O=C1OCC2=C1C(c1cccc(Br)c1)c1cc3c(cc1N2CCO)CCC3` (stereo not given), the GI50 in experiment [1] was 0.0801 µM; in experiment [2], 0.0329 µM; in [3] it was 0.0865 µM; in experiment [4] it was 0.136 µM; in experiment [5] it was 0.246 µM; in experiment [6], 0.137 µM. Besides, the GI50 was 0.231 µM in experiment [7], 0.0223 µM in experiment [8], 0.133 µM in experiment [9] and 0.0607 µM in experiment [10]. For the same compound, the TGI in experiment [1] was determined as 5.46 µM; in [2], 1.04 µM; in experiment [3], 9.68 µM; in [4] it was 8.42 µM; in [5], 6.9 µM; in experiment [6], 0.466 µM. In addition, the TGI in experiment [7] was 8.32 µM; in [8] it was 8.18 µM; in [9], 5.54 µM; in [10] it was 9.41 µM.
Turning to `NCCNc1c2c(c(NCCN)c3[nH]ccc13)C(=O)c1ccccc1C2=O`, the GI50 is 0.0444 µM in experiment [1]; 0.191 µM in experiment [2]; 0.124 µM in experiment [3]; 0.0741 µM in experiment [4]; 0.0978 µM in experiment [5]; 0.694 µM in [6]. Besides, the GI50 is 0.785 µM in experiment [7], 0.0842 µM in experiment [8], 0.63 µM in [9] and 0.317 µM in experiment [10]. The TGI in experiment [1] worked out at 0.885 µM; in [2], 0.957 µM; in [3], 0.706 µM; in experiment [4] it was 0.475 µM; in experiment [5], 0.994 µM; in experiment [6], 2.4 µM. Besides, the TGI in experiment [7] came to 2.41 µM; in [8], 0.372 µM; in experiment [9], 2.53 µM; in experiment [10] it was 0.945 µM.
As to `Nc1c(C(=O)Nc2ccncc2)sc2nc3c(cc12)CCCCCCCC3`, the GI50 in [1] is 0.878 µM; in experiment [2], 0.877 µM; in experiment [3], 0.889 µM; in [4], 0.9 µM; in experiment [5] it was 0.905 µM; in experiment [6], 0.944 µM. Further, the GI50 is 0.975 µM in experiment [7], 0.885 µM in experiment [8], 1.01 µM in [9] and 0.819 µM in experiment [10]. Also, the TGI in [1] was 1.6 µM; in [2], 1.62 µM; in experiment [3] it was 1.6 µM; in experiment [4], 1.74 µM; in experiment [5], 1.74 µM; in experiment [6], 1.72 µM. In addition, the TGI stood at 1.79 µM in experiment [7], 1.67 µM in [8], 2 µM in experiment [9] and 1.53 µM in experiment [10].
Regarding `Nc1nc(/C=C\c2ccc([N+](=O)[O-])s2)nc(N2CCCC2)n1`, the GI50 in experiment [1] was 8.24 µM; in experiment [2] it was 1.22 µM; in [3], 0.743 µM; in experiment [4] it was 5.84 µM; in [5], 3.45 µM; in experiment [6] it was 2.47 µM. Further, the GI50 in [7] is 12.9 µM; in experiment [8], 1.43 µM; in [9], 2.97 µM; in [10] it was 15.1 µM. Besides, the TGI was 30.4 µM in experiment [1]; 6.51 µM in experiment [2]; 10.9 µM in experiment [3]; 18.6 µM in [4]; 20.5 µM in experiment [5]; 16.4 µM in experiment [6]. Besides, the TGI in [7] was 27.9 µM; in experiment [8], 8.67 µM; in experiment [9], 22.9 µM; in [10], 44 µM.
With `Cc1ccc(NC(=O)CC2CC2)cc1-c1ccc(C(=O)NCC2CC2)cc1`, the GI50 in experiment [1], in experiment [2], in experiment [3], in experiment [4], in experiment [5] and in experiment [6] was greater than 25 µM throughout. Also, the GI50 was greater than 25 µM in experiment [7], greater than 21.7 µM in [8], greater than 25 µM in [9] and greater than 25 µM in [10]. Also, the TGI in experiment [1], in experiment [2], in [3], in experiment [4], in experiment [5] and in experiment [6] was greater than 25 µM in each case. The TGI in experiment [7], in experiment [8], in experiment [9] and in experiment [10] was greater than 25 µM each time.
On to `COc1ccc(Nc2nnc(-c3cc(O)ccc3O)s2)cc1`, for which the GI50 is 12.6 µM in [1]; 32.6 µM in [2]; greater than 50 µM in experiment [3]; greater than 50 µM in experiment [4]; 7.73 µM in experiment [5]; greater than 50 µM in [6]. Besides, the GI50 is 23.1 µM in experiment [7], 9.89 µM in [8], greater than 50 µM in experiment [9] and 9.45 µM in experiment [10]. The TGI was 25.8 µM in experiment [1]; greater than 50 µM in [2]; greater than 50 µM in experiment [3]; greater than 50 µM in experiment [4]; 19.2 µM in experiment [5]; greater than 50 µM in experiment [6]. The TGI in experiment [7] was greater than 50 µM; in [8], 20.8 µM; in experiment [9] it was greater than 50 µM; in experiment [10], greater than 50 µM.
